Test results published in ChEMBL document CHEMBL3596110, “Design of glycosyltransferase inhibitors targeting human O-GlcNAc transferase (OGT)” (Medchemcomm, 2014).
Activity calls are given as the source filed them. No cut-off for these calls is given here.

How the values were obtained:
[1] = Permeability across POPC liposomes by in-out method; format: ADME
[2] = Permeability across POPC liposomes by out-in method; format: ADME
[3] = biological target: T1, UDP-N-acetylglucosamine--peptide N-acetylglucosaminyltransferase 110 kDa subunit (Homo sapiens) (UniProt O15294); assay: Inhibition of OGT in human MCF7 cells assessed as decrease in intracellular O-GlcNAcylated protein level up to 500 uM after 24 to 48 hrs by immunoblot analysis; format: cell-based
T1 sequence (whole entry): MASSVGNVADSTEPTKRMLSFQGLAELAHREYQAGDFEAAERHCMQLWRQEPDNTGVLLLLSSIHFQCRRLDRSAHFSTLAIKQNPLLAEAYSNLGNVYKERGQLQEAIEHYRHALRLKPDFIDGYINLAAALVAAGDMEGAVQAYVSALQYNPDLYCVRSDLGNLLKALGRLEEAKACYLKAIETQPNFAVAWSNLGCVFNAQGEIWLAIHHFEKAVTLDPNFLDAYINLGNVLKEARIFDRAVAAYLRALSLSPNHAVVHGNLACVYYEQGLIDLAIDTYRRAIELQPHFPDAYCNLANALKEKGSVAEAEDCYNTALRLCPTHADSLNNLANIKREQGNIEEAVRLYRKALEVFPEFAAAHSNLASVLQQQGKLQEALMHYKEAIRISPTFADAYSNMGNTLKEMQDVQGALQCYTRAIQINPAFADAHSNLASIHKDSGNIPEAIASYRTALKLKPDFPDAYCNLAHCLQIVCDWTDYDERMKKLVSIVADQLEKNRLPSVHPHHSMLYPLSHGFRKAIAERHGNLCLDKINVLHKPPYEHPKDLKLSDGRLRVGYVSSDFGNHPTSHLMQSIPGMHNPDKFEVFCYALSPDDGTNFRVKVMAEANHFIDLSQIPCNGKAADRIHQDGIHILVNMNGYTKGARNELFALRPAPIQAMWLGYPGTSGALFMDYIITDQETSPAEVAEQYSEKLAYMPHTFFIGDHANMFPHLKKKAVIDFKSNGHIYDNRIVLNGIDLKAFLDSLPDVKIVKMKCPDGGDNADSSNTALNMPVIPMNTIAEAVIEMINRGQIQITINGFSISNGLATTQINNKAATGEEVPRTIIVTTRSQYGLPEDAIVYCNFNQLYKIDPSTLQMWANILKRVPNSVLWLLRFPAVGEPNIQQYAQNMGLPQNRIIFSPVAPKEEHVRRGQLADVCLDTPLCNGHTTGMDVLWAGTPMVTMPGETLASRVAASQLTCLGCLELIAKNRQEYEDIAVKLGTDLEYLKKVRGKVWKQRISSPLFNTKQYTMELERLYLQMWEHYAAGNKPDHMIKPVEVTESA

[4] = biological target: T1, UDP-N-acetylglucosamine--peptide N-acetylglucosaminyltransferase 110 kDa subunit (Homo sapiens); assay: Inhibition of human OGT using [3H]-UDP-GlcNAc as donor and recombinant nup2 as acceptor at 50 uM by liquid scintillation counting analysis
[5] = biological target: T1, UDP-N-acetylglucosamine--peptide N-acetylglucosaminyltransferase 110 kDa subunit (Homo sapiens); assay: Inhibition of OGT in human HeLa cells assessed as decrease in intracellular O-GlcNAcylated protein level up to 500 uM after 24 to 48 hrs by immunoblot analysis; format: cell-based
[6] = biological target: T2, UDP-N-acetylglucosamine--peptide N-acetylglucosaminyltransferase 110 kDa subunit (Homo sapiens, UniProt O15294); assay: Inhibition of human OGT using [3H]-UDP-GlcNAc as donor and recombinant nup2 as acceptor by liquid scintillation counting analysis
T2 sequence (O15294 whole entry): T1 sequence (whole entry)

[7] = biological target: T2, UDP-N-acetylglucosamine--peptide N-acetylglucosaminyltransferase 110 kDa subunit; assay: Inhibition of human OGT using [3H]-UDP-GlcNAc as donor and recombinant nup2 as acceptor by Dixon plot analysis
[8] = biological target: T1, UDP-N-acetylglucosamine--peptide N-acetylglucosaminyltransferase 110 kDa subunit (Homo sapiens); assay: Inhibition of OGT in human MCF10A cells assessed as decrease in intracellular O-GlcNAcylated protein level up to 500 uM after 24 to 48 hrs by immunoblot analysis; format: cell-based; conditions: MCF-10A

**Q.** For `O=C(NC[C@H]1O[C@@H](n2ccc(=O)[nH]c2=O)[C@H](O)[C@@H]1O)c1cccc(CO[C@@H]2O[C@H](CO)[C@@H](O)[C@H](O)[C@H]2O)n1`, which permeability [1] is on record?
**A.** impermeable

**Q.** And the permeability [2]?
**A.** impermeable

**Q.** Which results are given for `CC(=O)N[C@@H]1[C@@H](O)[C@H](O)[C@@H](CO)O[C@H]1NC(=O)c1cccc(Cc2cn(C[C@H]3O[C@@H](n4ccc(=O)[nH]c4=O)[C@H](O)[C@@H]3O)nn2)n1`?
**A.** inhibition [3]: inactive; inhibition [4]: 3%

**Q.** With `O=C(N[C@@H]1O[C@H](CO)[C@@H](O)[C@H](O)[C@H]1O)c1cccc(Cc2cn(C[C@H]3O[C@@H](n4ccc(=O)[nH]c4=O)[C@H](O)[C@@H]3O)nn2)n1` as the compound, how does the inhibition [5] read?
**A.** inactive

**Q.** What about the permeability [1] of the same compound?
**A.** impermeable

**Q.** And the permeability [2]?
**A.** impermeable

**Q.** And the IC50 [6]?
**A.** 340 µM

**Q.** What about the Ki [7] of the same compound?
**A.** 420 µM

**Q.** What about the inhibition [3] of the same compound?
**A.** inactive

**Q.** And the inhibition [4]?
**A.** 18%

**Q.** What about the inhibition [8] of the same compound?
**A.** inactive

**Q.** With `O=C(NC[C@H]1O[C@@H](n2ccc(=O)[nH]c2=O)[C@H](O)[C@@H]1O)c1cccc(Br)n1` as the compound, how does the inhibition [3] read?
**A.** inactive

**Q.** What about the inhibition [4] of the same compound?
**A.** 7.6%

**Q.** What does the source list for `O=c1ccn([C@@H]2O[C@H](Cn3cc(-c4cccc(-c5cn([C@@H]6O[C@H](CO)[C@@H](O)[C@H](O)[C@H]6O)nn5)n4)nn3)[C@@H](O)[C@H]2O)c(=O)[nH]1`?
**A.** IC50 [6]: 1600 µM; inhibition [3]: inactive; inhibition [4]: 13.3%

**Q.** With `CC(=O)N[C@@H]1[C@@H](O)[C@H](O)[C@@H](CO)O[C@@H]1SP(=O)(O)OP(=O)(O)OC[C@H]1O[C@@H](n2ccc(=O)[nH]c2=O)[C@H](O)[C@@H]1O` as the compound, how does the Ki [7] read?
**A.** 93 µM

**Q.** With `O=C(Oc1ccccc1)n1c(=O)oc2ccc(Cl)cc21` as the compound, how does the IC50 [6] read?
**A.** 10 µM

**Q.** For `CC(=O)N[C@@H]1[C@@H](O)[C@H](O)[C@@H](CO)O[C@H]1n1cc(-c2cccc(-c3cn(C[C@H]4O[C@@H](n5ccc(=O)[nH]c5=O)[C@H](O)[C@@H]4O)nn3)n2)nn1`, which inhibition [3] is on record?
**A.** inactive

**Q.** What about the inhibition [4] of the same compound?
**A.** 6.7%

**Q.** With `CC(=O)N[C@@H]1[C@@H](O)[C@H](O)[C@@H](CO)S[C@@H]1OP(=O)(O)OP(=O)(O)OC[C@H]1O[C@@H](n2ccc(=O)[nH]c2=O)[C@H](O)[C@@H]1O` as the compound, how does the Ki [7] read?
**A.** 8 µM

**Q.** Which results are given for `O=C(NC[C@H]1O[C@@H](n2ccc(=O)[nH]c2=O)[C@H](O)[C@@H]1O)c1cccc(-c2cn([C@@H]3O[C@H](CO)[C@@H](O)[C@H](O)[C@H]3O)nn2)n1`?
**A.** inhibition [3]: inactive; inhibition [4]: 4.2%

**Q.** For `CC(=O)N[C@@H]1[C@@H](O)[C@H](O)[C@@H](CO)O[C@H]1n1cc(-c2cccc(C(=O)NC[C@H]3O[C@@H](n4ccc(=O)[nH]c4=O)[C@H](O)[C@@H]3O)n2)nn1`, which inhibition [3] is on record?
**A.** inactive

**Q.** And the inhibition [4]?
**A.** 9.7%

**Q.** With `O=c1ccn([C@@H]2O[C@H](Cn3cc(-c4cccc(Br)n4)nn3)[C@@H](O)[C@H]2O)c(=O)[nH]1` as the compound, how does the IC50 [6] read?
**A.** 710 µM

**Q.** What about the inhibition [4] of the same compound?
**A.** 15.5%
